This note sets out measurements from patent US9144596B2, “Compositions and methods of treating neoplasia” (University of Florida Research Foundation, Inc., priority 2007, dated 2015).

Entries after “also recorded” stand apart in the source; their conditions may differ.

One data set has as its system HCT-116(APC+/+) cells. As to the kind of experiment: sulforhodamine B (SRB) colorimetric cytotoxicity assay. Type of data set: cell-based, human. The settings on record: for effect on the cytotoxicity of TMZ: 2 hours pretreatment, then TMZ 48 hours. Here is the method: (§1) The IC50 (the drug concentration needed to prevent cell proliferation by 50%) of TMZ was determined using a sulforhodamine B (SRB) colorimetric assay. This assay relies on the ability of SRB to bind the protein components of cells that have been fixed to tissue culture plates by trichloroacetic acid (TCA) (Vachai V, Kirtikara K. Sulforhodamine B colorimetric assay for cytotoxicity screening. Nat. Proto. 3: […], 2006). Briefly, the HCT-116(APC^+/+) and HCT-116(APC^−/−) were seeded in 96-well plates at a density of 500 cells per well. After 24 hours, while the cells were in the log phase of cell growth, the cells were treated with different concentrations of TMZ for 48 hours. The cells were subsequently fixed with 10% (w/v) of tricholoroacetic acid, washed with double distilled water, and stained with 0.4% SRB. Cells were then repeatedly washed with 1% (v/v) of acetic acid to remove the unbound dye. The protein bound dye was dissolved in 10 mM Tris-base solution (pH 10.5). The developed color was measured at 564 nm. The percentage of cell survival as a function of drug concentration was then plotted to determine the IC50 value. The IC50 of TMZ in HCT-116(APC^+/+) and HCT-116(APC^−/−) cells was 200 and 400 μM, respectively (FIG. 18A). […] This is consistent with the hypothesis that APC-mediated blockage of base excision repair increase d the sensitivity to TMZ in APC^+/+ cells. SRB assays were then used to determine whether TMZ-induced cytotoxicity was correlative to the increased level of APC in HCT-116(APC^+/+) cells.
(§2) APC blocked base excision repair and sensitized colon cancer cells after TMZ treatment. […] The cellular toxicity was determined by sulforhodamine B (SRB) colorimetric assay as described above. […] The cytotoxicity of these compounds was greater in HCT-116(APC^+/+) cells than in HCT-116(APC^−/−) cells (FIG. 19, compare the results of Panel A with B and C with D, respectively).

The next data set relates to HCT-116(APC−/−) cells. The data set is described as above. The class given is cell-based, human. The settings on record: for effect on the cytotoxicity of TMZ: 2 hours pretreatment, then TMZ 48 hours. Here is the method:
as §1, §2

The subject of data set [1] is HCT-116-APC(WT)+ch3 cells. In words: SRB cytotoxicity assay, MMR-proficient cells. The class given is cell-based, human. Here is the method:
(§3) FIGS. 24A and 24D NSC-124854 enhanced the cytotoxicity of TMZ in both MMR-positive and MMR-negative colon cancer cell lines in culture. […] After 48 hours, cells were harvested and processed for cytotoxicity determination. Data presented are the mean±SE of three different estimations.
as §1
(Sulforhodamine B stains cellular protein and so reports cell mass.)

The next data set has as its system SW480 cells. As to the kind of experiment: SRB cytotoxicity assay, MMR-proficient cells. The class given is cell-based, human. Here is the method:
as §3, §1

Another data set relates to CACO-2 cells. In words: SRB cytotoxicity assay, MMR-deficient cells. The class given is cell-based. The settings on record: Homo sapiens; CACO-2, TMZ alone, 48 hours. Here is the method:
(§4) FIGS. 24A and 24D NSC-124854 enhanced the cytotoxicity of TMZ in both MMR-positive and MMR-negative colon cancer cell lines in culture. MMR-proficient [HCT-116-APC(WT)+ch3 and SW480 (Panel 24A and […])] and MMR-deficient [CACO-2 and LoVo (Panel 24C and 24D)] cells were pretreated for 2 hours with 50 μM of NSC-124854 followed by the treatment with different concentrations of TMZ. After 48 hours, cells were harvested and processed for cytotoxicity determination. Data presented are the mean±SE of three different estimations.
(§5) The IC50 (the drug concentration needed to prevent cell proliferation by 50%) of TMZ was determined using a sulforhodamine B (SRB) colorimetric assay. This assay relies on the ability of SRB to bind the protein components of cells that have been fixed to tissue culture plates by trichloroacetic acid (TCA) (Vachai V, Kirtikara K. Sulforhodamine B colorimetric assay for cytotoxicity screening. Nat. Proto. 3: […], 2006). Briefly, the HCT-116(APC^+/+) and HCT-116(APC^−/−) were seeded in 96-well plates at a density of 500 cells per well. After 24 hours, while the cells were in the log phase of cell growth, the cells were treated with different concentrations of TMZ for 48 hours. The cells were subsequently fixed with 10% (w/v) of tricholoroacetic acid, washed with double distilled water, and stained with 0.4% SRB. […]

The next data set deals with LoVo cells. As to the kind of experiment: SRB cytotoxicity assay, MMR-deficient cells. Type of data set: cell-based. To be noted: Homo sapiens, TMZ alone, 48 hours. Here is the method: as §4, §5
The target in data set [2] is T1, pol-β (Homo sapiens, UniProt P06746).
T1 construct: made in house; host or cells: Escherichia coli BL21(DE3)pLysS
As to the kind of experiment: dRP-lyase activity assay. The class given is biochemical. To be noted: 1 nM pol-βwt; various concentrations of test substance.

Data set [3] has as its target T1, pol-β. As to the kind of experiment: strand-displacement synthesis, reconstituted in vitro base excision repair assay with 32P-F-DNA. The class given is biochemical. To be noted: for pol-β-directed strand-displacement synthesis: different concentrations; for pol-β-directed single-nucleotide incorporation: all the concentrations tested.
The target of data set [4] is T1, pol-β. As to the kind of experiment: in vitro SN- and LP-BER assay with 32P-U-DNA. The class given is biochemical. The settings on record: for complete repair of 32P-U-DNA by the SN-BER pathway: absence of Fen-1, DNA ligase I; for complete repair of 32P-U-DNA by the LP-BER pathway: presence of Fen-1, DNA ligase I.
The subject of data set [5] is HCT-116(APC+/+) and HCT-116(APC−/−) colon cancer cell lines. In words: SRB cytotoxicity of the compounds alone (FIGS. 19E and F). Type of data set: cell-based, human. To be noted: up to 100 μM concentrations. Here is the method: After 48 hours, cells were harvested and processed for cytotoxicity determination as described herein. […] Data are the mean±SE of three different estimations.
as §5, with “SRB. Cells were then repeatedly washed with 1% (v/v) of acetic acid to remove the unbound dye. The protein bound dye was dissolved in 10 mM Tris-base solution (pH 10.5). The developed color was measured at 564 nm.” for “SRB.”
APC blocked base excision repair and sensitized colon cancer cells after TMZ treatment. […] The cellular toxicity was determined by sulforhodamine B (SRB) colorimetric assay as described above. […]

Data set [6] concerns the target T1, pol-β. In words: long patch-base excision repair assay with 32P-F-DNA. The class given is biochemical. The settings on record: pol-βwt, Fen-1, DNA ligase I; 2 μM APCwt peptide. Here is the method: To determine whether the blockage in the strand-displacement synthesis by the pol-βMut-1 was sufficient to block long patch-base excision repair, a long patch-base excision repair assay was set up as outlined in FIG. 10A. […] This DNA repair was blocked in the presence of 2 μM APCwt peptide, but not with APC(I-A,Y-A) peptide (FIG. 10B, compare lane 5 with 8 for APCwt and with 9-11 for APC(I-A,Y-A), respectively, for the formation of the 63-mer ligated product). […] The 2-nucleotide strand-displacement synthesis by pol-βMut-1 protein was sufficient to carry out long patch-base excision repair in the presence of Fen-1.
To study long patch- and single nucleotide-base excision repair activities, different types of DNA substrates were used. For long patch-base excision repair activity, an AP-site analog (3-hydroxy-2-hydroxymethyltetrahydrofuran, noted as F) was introduced at the 24th position of the 63-mer DNA (5′-[…] CGACA-3′ (SEQ ID NOS 17-18)), which was called F-DNA (27). For making U-DNA, uracil was introduced at the 24th position of 63-mer sense oligonucleotide (5′-[…] GACA-3′ (SEQ ID NO: 19)). Sense strands of F-DNA and U-DNA were 5′-end labeled by [a-^32P]ATP and T4 polynucleotide kinase and purified with a nick-column (GE Healthcare, Piscataway, N.J.). Later they were annealed with the complementary 63-mer oligonucleotide (5′-[…] CTAG-3′ (SEQ ID NO: 20)) at a 1:1 molar ratio. […]

The mark [7] stands for this setting: 32P-U-DNA substrate, dose-dependent.

The term IC50 denotes the concentration at which inhibition is half-maximal. On to `Cn1nnc2c(C(N)=O)ncn2c1=O` [TMZ, Temozolomide, reference compound], for which the IC50 is 200 µM with HCT-116(APC+/+) cells (Homo sapiens, HCT-116(APC+/+), 48 hours, SRB, read-out: IC50 of TMZ); 400 µM with HCT-116(APC−/−) cells (Homo sapiens, 48 hours, SRB, read-out: IC50 of TMZ); 100 µM in data set [1] (Homo sapiens, HCT-116-APC(WT)+ch3, TMZ alone, 48 hours); 120 µM with SW480 cells (Homo sapiens, SW480, TMZ alone, 48 hours); 364 µM with CACO-2 cells; 677 µM in the data set on LoVo cells. The “sensitivity to TMZ of HCT-116(APC+/+) versus HCT-116(APC−/−) cells” value with HCT-116(APC+/+) cells (ratio of IC50) came out at 2 times.

Consider `NC1=NC(=O)N(C2CC(O)C(COP(=O)(O)O)O2)C(I)C1` (centres unmarked) [NSC-124854], for which, at pol-β [2], the “pol-β-directed dRP-lyase activity” value is “successfully blocked”. For the same compound, on pol-β [3] (32P-F-DNA substrate), the “DNA synthesis (1-nt and strand-displacement) of pol-β” value is “completely blocked”; the pol-β-directed strand-displacement synthesis result is on record as “dose-dependent decrease”. The “potency among the four compounds tested, strand-displacement synthesis” value at pol-β [3] (inhibited at lower concentrations) was “most potent”. At pol-β [4] (setting [7]), the “Pol-β-mediated 1-nt incorporation” value was “blocked” and the “strand-displacement synthesis in the presence of Fen-1” value is “blocked”. Besides, on pol-β [4], the “complete repair of 32P-U-DNA by the SN-BER pathway” value is listed as “blocked in a dose-dependent manner” and the “complete repair of 32P-U-DNA by the LP-BER pathway” value was “blocked in a dose-dependent manner”. For the same compound, in the data set with HCT-116(APC+/+) cells (HCT-116(APC+/+)), the “effect on the cytotoxicity of TMZ” value is given as “increased”. Moreover, the “effect on the cytotoxicity of TMZ” value in the data set with HCT-116(APC−/−) cells was “increased”. The “cytotoxicity of the compound alone” value in data set [5] is on record as “very low”. The “reduction of the IC50 of TMZ” value in data set [1] (HCT-116-APC(WT)+ch3, combination of 50 μM of NSC-124584) came out at 2.5 fold. In the data set on SW480 cells (SW480, combination of 50 μM of NSC-124584), the “reduction of the IC50 of TMZ” value turned out to be 2.5 fold.

On to `O=C(O)CC(C(=O)O)C(CC(=O)O)C(=O)O` (centres unmarked) [CN3], for which the “pol-β-directed dRP-lyase activity” value at pol-β [2] was “did not inhibit”. Moreover, at pol-β [3] (32P-F-DNA substrate), the pol-β-directed single-nucleotide incorporation result is given as “unaffected” and the pol-β-directed strand-displacement synthesis result is “dose-dependent decrease”.

“APC(I-A,Y-A): mutant APC peptide 1250-KVSSINQETAQTACVEDTPI-1269, Ile1259 and Tyr1262 replaced with alanine (UniProt P25054 1250-1269, looked up, variant I1259A Y1262A) [reference compound]”: the “pol-β-directed dRP-lyase activity” value in the data set with pol-β [2] was “did not show any effect”. Moreover, in the data set with pol-β [3] (32P-F-DNA substrate), the pol-β-directed single-nucleotide incorporation entry was “unaffected” and the pol-β-directed strand-displacement synthesis entry is “not”. For the same compound, in the data set with pol-β [4], the “complete repair of 32P-U-DNA by the SN-BER pathway” value was “not” and the “complete repair of 32P-U-DNA by the LP-BER pathway” value is reported as “not”. Moreover, the “complete DNA repair of F-DNA (63-mer ligated product), LP-BER” value in the data set with pol-β [6] is recorded as “not”.

Turning to `Cc1cc(S(=O)(=O)Nc2n[nH]c(Nc3ccc(Cl)cc3)n2)c(S)cc1Cl` [NSC-666715], the “effect on the cytotoxicity of TMZ” value with HCT-116(APC+/+) cells (HCT-116(APC+/+)) and in the data set with HCT-116(APC−/−) cells was “increased” throughout. The “cytotoxicity of the compound alone” value in data set [5] was “very low”.

For the compound “APCwt: wild-type APC peptide of 20 amino acids, 1250-KVSSINQETIQTYCVEDTPI-1269, DNA repair inhibitory (DRI)-domain (UniProt P25054 1250-1269, looked up, fragment)”, the “pol-β-directed dRP-lyase activity” value with pol-β [2] is “blocked”. In the data set with pol-β [3] (32P-F-DNA substrate), the pol-β-directed single-nucleotide incorporation entry was “unaffected” and the pol-β-directed strand-displacement synthesis entry is “dose-dependent decrease; also recorded: blocked”. In the data set with pol-β [4], the “complete repair of 32P-U-DNA by the SN-BER pathway” value is recorded as “blocked” and the “complete repair of 32P-U-DNA by the LP-BER pathway” value was “blocked”. Moreover, in the data set with pol-β [6], the “complete DNA repair of F-DNA (63-mer ligated product), LP-BER” value is recorded as “blocked”.
